IC50 data for one compound are collected here from patent publication US7825128B2, “Sulfoximine-substituted pyrimidines, processes for production thereof and use thereof as drugs” (Bayer Schering Pharma AG, priority 2005, dated 2010).

The structures appear in SMILES notation.

One may read the IC50 as the midpoint of a concentration-inhibition curve. A lower IC50 goes with greater potency.

The target in assay [1] is T1, ITK (Homo sapiens, UniProt Q08881).
T1 sequence (Q08881 1-620): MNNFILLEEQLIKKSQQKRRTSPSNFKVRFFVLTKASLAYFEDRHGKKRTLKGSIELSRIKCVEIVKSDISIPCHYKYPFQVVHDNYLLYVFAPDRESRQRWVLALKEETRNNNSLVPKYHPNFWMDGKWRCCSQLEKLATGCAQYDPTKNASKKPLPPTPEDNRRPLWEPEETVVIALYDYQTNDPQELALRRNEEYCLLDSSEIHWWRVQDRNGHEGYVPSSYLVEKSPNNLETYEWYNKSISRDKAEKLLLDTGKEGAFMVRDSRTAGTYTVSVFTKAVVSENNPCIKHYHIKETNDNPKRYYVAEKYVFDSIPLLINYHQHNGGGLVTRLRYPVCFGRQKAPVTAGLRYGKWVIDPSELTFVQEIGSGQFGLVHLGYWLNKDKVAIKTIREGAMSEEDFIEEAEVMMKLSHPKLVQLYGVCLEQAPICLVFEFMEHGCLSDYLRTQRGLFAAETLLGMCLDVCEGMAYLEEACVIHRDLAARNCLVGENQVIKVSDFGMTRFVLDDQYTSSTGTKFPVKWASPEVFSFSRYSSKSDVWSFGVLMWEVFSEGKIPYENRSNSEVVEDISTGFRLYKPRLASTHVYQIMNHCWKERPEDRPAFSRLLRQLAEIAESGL
Description: ITK kinase assay a) (polyGT, FRET). In kind it is biochemical. The conditions noted are these: polyGT substrate, 1.3 μM ATP. Here is the method: For the determination of the kinase activity of ITK, the phosphorylation of polyGT is measured. In the kinase reaction, 106 pM ITK, 1.3 μM ATP and 20 nM polyGT are used. The reaction runs for 20 mins at RT and is then stopped by addition of EDTA (final concentration 60 mM).
The reaction buffer contains 50 mM TrisCL pH7.5, 10 mM MnCl2, 10% glycerine, 1 mM DTT, 0.1% Tween-20 and 0.1 mM Na3V04 and a protease inhibitor cocktail (“complete”, Roche diagnostics)
The measurement of the enzyme activity is effected by the determination of the phosphorylated substrates. The poly GT substrate used is biotinylated. The measurement is performed in a FRET-based assay, wherein an anti-phospho-tyrosine antibody recognises and binds the phosphorylated substrate poly GT.
The bound antibody is now in the spatial vicinity of a streptavidin-coupled fluorescence dye, which was bound to polyGt by biotin-streptavidin interaction. On excitation of the europium chelate on the phosphotyrosine antibody with […] UV light, light of the wavelength 620 nm is emitted, which in turn excites the dye XLent, which then emits light of longer wavelength (665 nm).
The detection reagents are added in 50 mM Hepes pH 7.0 with 0.1% BSA. […]
After addition of the detection reagents, the samples stand overnight at 4 degrees Celsius, in order to form the FRET-creating complexes. For example, an IC50=4 μM was measured for Example 1.7.

In assay [2] the target is T2, human Itk (Homo sapiens, UniProt Q08881).
T2 construct: kinase domain of the human Itk (amino acids 352-617); 6His (N); purchased Upstate (Dundee, UK); host or cells: baculovirus infected SF21 cells
T2 sequence (Q08881 352-617): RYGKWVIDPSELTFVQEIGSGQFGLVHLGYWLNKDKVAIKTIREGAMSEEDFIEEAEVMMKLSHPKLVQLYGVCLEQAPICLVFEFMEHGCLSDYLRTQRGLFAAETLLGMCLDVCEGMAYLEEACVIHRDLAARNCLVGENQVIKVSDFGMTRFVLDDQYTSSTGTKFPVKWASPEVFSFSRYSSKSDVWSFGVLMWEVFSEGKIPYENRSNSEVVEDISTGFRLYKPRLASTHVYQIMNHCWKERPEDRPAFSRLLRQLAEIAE
Description: ITK kinase assay b) (Itk HTRF assay). Type of assay: biochemical. The conditions noted are these: biotinylated myelin basic protein, 10 μM ATP. The text has this:
Itk inhibitory activity of compounds of the present invention was quantified employing the Itk HTRF assay as described in the following paragraphs.
N-terminal 6His-tagged recombinant kinase domain of the human Itk (amino acids 352-617) expressed in baculovirus infected SF21 cells and purified using Ni^2+/NTA agarose was purchased form Upstate (Dundee, UK) and used as kinase. As substrate for the kinase reaction the biotinylated myelin basic protein was used which can be purchased form GE Healthcare (Freiburg i. Br., Germany). […]
The resulting mixture was incubated 1 h at 22° C. to allow the binding of the biotinylated phosphorylated substrate to the streptavidine-XLent and the PT66-Eu-Chelate. Subsequently the amount of phosphorylated substrate was evaluated by measurement of the resonance energy transfer from the PT66-Eu-Chelate to the streptavidine-XLent. Therefore, the fluorescence emissions at 620 nm and 665 nm after excitation at 350 nm was measured in a HTRF reader, e.g. a Rubystar (BMG Labtechnologies, Offenburg, Germany) or a Viewlux (Perkin-Elmer). […] The data were normalised (enzyme reaction without inhibitor=0% inhibition, all other assay components but no enzyme=100% inhibition) and IC50 values were calculated by a 4 parameter fit using an inhouse software.
In general terms: In TR-FRET formats the signal depends on donor and acceptor labels being close together.

Turning to `CCOC(=O)N=S(C)(=O)c1ccc(Nc2ncc(-c3cccs3)c(N[C@H](CC)CO)n2)cc1Br` (mixture of isomers) [Example 1.7, (RS)—S-{2-bromo-4-[(4-{[(R)-1-(hydroxymethyl)propyl]amino}-5-(2-thienyl)pyrimidine-2-yl)amino]phenyl}-N-(ethoxycarbonyl)-S-methylsulfoximide], the results for the IC50 in assay [1] and in assay [2] were 4 µM and 400 nM, respectively.
